Data taken from publication PMC12663137 (Nature Communications, 2025).
Values joined by “and” are separate entries in the source; they are usually repeats but may differ in a detail not shown here. Equal entries are not always repeated.

Legend:
[1] = target: T1, SV2A WT and mutants (Homo sapiens, UniProt Q7L0J3, L655A); experiment: Modulatory effect of 30 µM UCB1244283 on 3H-UCB-J binding, effect of mutations (Fig. 4D); conditions: L655A
T1 construct: expressed in transfected cells; host or cells: HEK293 (ATCC CRL-1573), crude membranes
Method: (§1) Data are shown as mean ± s.d.; n = 6 biological replicates. […] Data are shown as mean ± s.d.; n = 6 biological replicates. […] Residual binding observed at 70 min was defined as 0%. For WT, data are shown as mean ± s.d. […] For the DMSO group, data are shown as mean ± s.d. (n = 4 biological replicates); for the other groups, data are shown as mean (n = 2). Source data for (A, D, E, F) are provided as a Source data file.
(§2) Ligand binding studies were carried out using crude membranes prepared from HEK293 cells (ATCC, CRL-1573) overexpressing mVenus-SV2AWT or SV2AEM. Membranes were prepared either from transiently transfected cells or from baculovirus-infected cells as described previously. Cells were washed with DPBS (Ca^2+ and Mg^2+ free), followed by resuspending in cold SH buffer (10 mM HEPES-Tris pH 7.4, 320 mM sucrose) containing protease inhibitor cocktail (MedChemExpress) to a density of 10^7 cells/ml. This cell suspension was homogenized by passing through a bead homogenizer (Isobiotec) with 10-micron clearance bead on ice. The lysate was then centrifuged at 4000 × g for 5 min at 4 °C, and the supernatant was aliquoted, frozen in liquid nitrogen, and stored at −80 °C. The mVenus fluorescence estimated using fluorescence size-exclusion chromatography (FSEC) was used to normalize expression levels of mVenus-SV2A mutants studied as detailed previously. For all binding studies, membranes containing […] protein (estimated by BCA method) per reaction were used.
(§3) An equal volume of dimethyl sulfoxide (DMSO) was added to control reactions. Reactions were arrested after 2 h by trapping the membranes on a Unifilter-GF/C 96-well filter plate pre-soaked with 0.1%(w/v) polyethyleneimine. Membranes were washed four times with 0.2 ml of cold binding buffer, dried, and 40 µl of scintillation liquid was added to each well. Radioactivity was monitored in MicroBeta2 plate counter. Residual binding observed in presence of either 10 µM ^1H-UCB-J or 10 µM ^1H-padsevonil was considered as background and subtracted from total binding. Estimates for Kd and Bmax were obtained by fitting the data to one site-specific binding curve using GraphPad Prism 10.

[2] = target: T2, SV2A WT and mutants (Homo sapiens, UniProt Q7L0J3, L655Q); experiment: as above; conditions: L655Q
T2 construct: expressed in transfected cells; host or cells: HEK293 (ATCC CRL-1573), crude membranes
Method: as §1, §2, §3

[3] = target: T3, SV2A WT and mutants (Homo sapiens, UniProt Q7L0J3, M301A); experiment: as above; conditions: M301A; 30 µM; enhancement in SV2AWT defined as 100%
T3 construct: expressed in transfected cells; host or cells: HEK293 (ATCC CRL-1573), crude membranes
Method: as §1, §2, §3

[4] = system: SV2A WT and mutants; experiment: as above; set-up: species or system human; conditions: Phe188, Tyr461 or Ser601 mutated to alanine
Method: as §1, §2, §3

[5] = Solubility remark (cryo-EM sample preparation); type: physicochemical; conditions: concentration could not be increased further
Description: convulsions (Daniels V, Wood M, Leclercq K, Kaminski RM, Gillard M. Modulation of the conformational state of the SV2A protein by an allosteric mechanism as evidenced by ligand binding assays. Br J Pharmacol. 2013 […]
understanding of how USC1244283 modulates the binding of antiseizure drugs to SV2A, the cryo-EM structure of an SV2A-UCB1244283 complex should be determined. […]
allosteric site or also the primary binding site? Are there conformational changes without BRV or UCB-J […]
In our original submission, we mentioned our unsuccessful attempt to determine the structure of the SV2A– […]
These observations are consistent with the allosteric site not being well formed (i.e., very low aƯinity) in unliganded SV2A; orthosteric ligand binding induces the formation of the allosteric site (increased aƯinity).
We have expanded the text to make these points clearer. […]
endogenous substrate is bound to the transporter, or from other oƯ-target eƯects.
- Like reported for BRV in the above-mentioned preprint, UCB1244283 prevents dissociation of UCB-J by blocking the luminal gate. […] I think such […]
experiments are important to obtain further insights into the action of UCB1244283. […]
the orthosteric site and the vesicular lumen. […]
accessing the orthosteric site, and we have included additional discussion in the revision.
(1 picture or pasted object on this page, not shown here)

T3 sequence (Q7L0J3 whole entry M301A): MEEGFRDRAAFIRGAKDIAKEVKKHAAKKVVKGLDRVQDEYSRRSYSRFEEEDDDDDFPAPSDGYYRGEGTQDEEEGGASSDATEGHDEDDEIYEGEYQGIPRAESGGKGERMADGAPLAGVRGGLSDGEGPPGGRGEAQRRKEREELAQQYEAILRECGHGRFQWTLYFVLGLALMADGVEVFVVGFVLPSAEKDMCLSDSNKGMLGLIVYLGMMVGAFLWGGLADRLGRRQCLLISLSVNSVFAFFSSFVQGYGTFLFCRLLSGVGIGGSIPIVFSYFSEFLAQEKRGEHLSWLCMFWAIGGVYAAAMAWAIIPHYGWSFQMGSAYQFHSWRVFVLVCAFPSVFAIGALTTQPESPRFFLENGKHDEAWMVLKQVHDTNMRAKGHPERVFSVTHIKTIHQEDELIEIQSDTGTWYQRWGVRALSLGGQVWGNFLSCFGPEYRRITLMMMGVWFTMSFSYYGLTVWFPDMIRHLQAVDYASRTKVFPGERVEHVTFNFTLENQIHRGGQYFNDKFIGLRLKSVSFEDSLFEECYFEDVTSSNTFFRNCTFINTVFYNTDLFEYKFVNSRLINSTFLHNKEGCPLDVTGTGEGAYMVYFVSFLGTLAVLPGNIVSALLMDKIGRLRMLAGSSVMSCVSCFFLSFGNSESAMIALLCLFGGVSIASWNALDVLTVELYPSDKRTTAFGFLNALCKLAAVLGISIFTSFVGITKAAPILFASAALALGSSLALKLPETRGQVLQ
T2 sequence (Q7L0J3 whole entry L655Q): as the sequence (Q7L0J3 whole entry M301A) above, with A301M, L655Q counted along it
T1 sequence (Q7L0J3 whole entry L655A): as the sequence (Q7L0J3 whole entry M301A) above, with A301M, L655A counted along it

Structure (SMILES): COc1ccccc1NC(=O)CC(C)Cc1cc(C)cc(C)c1 (centres unmarked) [UCB1244283]
- allosteric modulation of 3H-UCB-J binding [1]: did not impair modulation
- allosteric modulation of 3H-UCB-J binding [2]: abolished allosteric modulation
- UCB1244283 modulation (%) [3]: 204.26% and 178.72% and 164.89% and 193.57% and 161.39% and 224.53% and 226.42%
- allosteric potentiation of 3H-UCB-J binding [4]: loss of allosteric potentiation
- solubility [5]: poor solubility
